{
  "source": "patent US6600072B2",
  "about": "“Substituted 1-naphthoylguanidines, process for their preparation, their use as a medicament or diagnostic , and medicament containing them” (Aventis Pharma Deutschland GmbH, priority 1996, dated 2003)",
  "note": "Where a name gives a salt, the structure may show the parent alone.",
  "data": [
    {"biological_target": "T1, Na^+/H^+ exchanger of rabbit erythrocytes (Oryctolagus cuniculus, UniProt P23791)", "T1 construct": "determine the Na^+ influx into the erythrocytes via Na^+/H^+ exchange by flame photometry; endogenous in cells; host or cells: erythrocytes in whole blood of cholesterol-fed White New Zealand rabbits", "T1 sequence (P23791 whole entry)": "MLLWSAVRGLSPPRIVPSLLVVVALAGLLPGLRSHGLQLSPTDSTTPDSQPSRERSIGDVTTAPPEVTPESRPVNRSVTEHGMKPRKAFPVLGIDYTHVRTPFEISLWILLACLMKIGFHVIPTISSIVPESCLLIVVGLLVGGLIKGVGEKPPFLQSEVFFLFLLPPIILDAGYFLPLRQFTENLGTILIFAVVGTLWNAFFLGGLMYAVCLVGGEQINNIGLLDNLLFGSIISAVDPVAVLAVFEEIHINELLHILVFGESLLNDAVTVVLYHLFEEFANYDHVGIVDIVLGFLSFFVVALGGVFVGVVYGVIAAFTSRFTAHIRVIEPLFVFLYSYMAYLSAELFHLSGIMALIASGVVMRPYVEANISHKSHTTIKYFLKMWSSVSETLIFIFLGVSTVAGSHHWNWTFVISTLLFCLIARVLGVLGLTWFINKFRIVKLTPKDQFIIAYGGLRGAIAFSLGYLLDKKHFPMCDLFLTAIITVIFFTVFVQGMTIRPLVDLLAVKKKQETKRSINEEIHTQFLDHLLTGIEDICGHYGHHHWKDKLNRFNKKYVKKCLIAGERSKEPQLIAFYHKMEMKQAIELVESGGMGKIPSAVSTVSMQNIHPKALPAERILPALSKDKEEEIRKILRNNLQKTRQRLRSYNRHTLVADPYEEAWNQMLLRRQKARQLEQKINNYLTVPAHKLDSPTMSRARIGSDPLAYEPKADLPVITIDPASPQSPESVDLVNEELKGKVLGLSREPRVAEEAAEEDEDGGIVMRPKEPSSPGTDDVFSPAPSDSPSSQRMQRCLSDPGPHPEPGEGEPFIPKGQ", "assay": "Inhibition of the Na+/H+ exchanger of rabbit erythrocytes (amiloride-sensitive sodium influx, flame photometry)", "type": "cell-based", "conditions": "pH 7.4, 37° C., hyperosmolar salt-sucrose medium", "text": "Inhibition of the Na^+/H^+ exchanger of rabbit erythrocytes:\nWhite New Zealand rabbits (Ivanovas) received a standard diet containing 2% cholesterol for six weeks in order to activate Na^+/H^+ exchange and thus to be able to determine the Na^+ influx into the erythrocytes via Na^+/H^+ exchange by flame photometry. The blood was taken from the auricular arteries and rendered uncoagulable by means of 25 lU/ml of potassium heparin. A part of each sample was used for the duplicate determination of the hematocrit by centrifugation. Aliquots of 100 μl in each case were used to measure the Na^+ starting content of the erythrocytes.\nIn order to determine the amiloride-sensitive sodium influx, 100 μl of each blood sample were incubated at pH 7.4 and 37° C. in 5 ml in each case of a hyperosmolar salt-sucrose medium (mmol/l: 140 NaCl, 3 KCl, 150 sucrose, 0.1 ouabain, 20 trishydroxymethylaminomethane). The erythrocytes were then washed three times with ice-cold MgCl2-ouabain solution (mmol/l: 112 MgCl2, 0.1 ouabain) and hemolyzed in 2.0 ml of distilled water. The intracellular sodium content was determined by flame photometry.\nThe net Na^+ influx was calculated from the difference between sodium starting values and the sodium content of the erythrocytes after incubation. The amiloride-inhibitable sodium influx ensued from the difference in the sodium content of the erythrocytes after incubation with and without amiloride 3×10^−4 mol/l. The sodium influx was also determined in this manner in the case of the compounds according to the invention.", "units": {"IC50": "nM"}, "values": [
      {"smiles": "Cl.NC(N)=NC(=O)c1ccc(F)c2ccccc12", "note": "[Example 1, 4-Fluoro-1-naphthoylguanidine Hydrochloride]", "IC50": "1000 to 2000"},
      {"smiles": "N=C(N)NC(=O)c1cccc2ccccc12", "note": "[Example 6, 1-Naphthoylguanidine Hydrochloride]", "IC50": 10000},
      {"smiles": "COc1ccc2ccccc2c1C(=O)NC(=N)N", "note": "[Example 8, 2-Methoxy-1-naphthoylguanidine Hydrochloride]", "IC50": 500},
      {"smiles": "CCCCOc1ccc2ccccc2c1C(=O)NC(=N)N", "note": "[Example 14, 2-Butyloxy-1-naphthoylguanidine Hydrochloride]", "IC50": 1000},
      {"smiles": "CC(C)Oc1ccc2ccccc2c1C(=O)NC(=N)N", "note": "[Example 18, 2-Isopropyloxy-1-naphthoylguanidine Hydrochloride]", "IC50": 2000}
    ]},
    {"system": "not given", "assay": "not given", "conditions": "not given", "values": [
      {"smiles": "NC(N)=NC(=O)c1c(OCc2ccc(Br)cc2)ccc2ccccc12", "note": "(as salt: hydrochloride) (hydrate or solvate) [Example 9, 2-(4-Bromobenzyloxy)naphthoylguanidine Hydrochloride Hemihydrate]", "melting point": "198 to 202 °C"},
      {"smiles": "COc1ccc2c(C(=O)N=C(N)N)cccc2c1C(F)(F)F", "note": "(as salt: hydrochloride) [Example 3, 6-Methoxy-5-trifluoromethyl-1-naphthoyl-guanidine Hydrochloride]", "melting point": "> 260 °C"},
      {"smiles": "COc1ccc2c(C(=O)N=C(N)N)cccc2c1", "note": "(as salt: hydrochloride) [Example 4, 6-Methoxy-1-naphthoylguanidine Hydrochloride]", "melting point": "235 to 236 °C"},
      {"smiles": "Cl.NC(N)=NC(=O)c1ccc(F)c2ccccc12", "note": "[Example 1, 4-Fluoro-1-naphthoylguanidine Hydrochloride]", "melting point": "245 °C"},
      {"smiles": "NC(N)=NC(=O)c1c(OCc2ccc(CN3CCCCC3)cc2)ccc2ccccc12", "note": "[Example 10, 2-[4-(1-Piperidinomethyl)benzyloxy]-1-naphthoylguanidine]", "melting point": "205 to 210 °C"},
      {"smiles": "NC(N)=NC(=O)c1ccc(C(=O)N=C(N)N)c2ccccc12", "note": "[Example 23, Naphthaline-1,4-dicarboxylic Acid Diguanidide]", "melting point": "270 °C (dec.)"}
    ]},
    {"system": "rat hearts", "assay": "not given", "conditions": "isolated rat hearts; cited from earlier work", "values": [
      {"smiles": "N=C(N)NC(=O)c1nc(Cl)c(N)nc1N", "note": "[amiloride, Amiloride]", "suppression of artificially induced ventricular fibrillation": "suppressed completely"},
      {"smiles": "CCN(c1nc(N)c(C(=O)NC(=N)N)nc1Cl)C(C)C", "note": "[ethylisopropylamiloride, Ethylisopropylamiloride]", "potency relative to amiloride in the ventricular fibrillation model": "even more potent than amiloride"}
    ]}
  ]
}
